Measurements as given in ChEMBL document CHEMBL2331182, “Discovery of a small-molecule antiviral targeting the HIV-1 matrix protein” (Bioorg Med Chem Lett, 2013).

Key:
[1] = target: T1, Structural capsid protein (Human immunodeficiency virus 1, UniProt Q76129); test: Inhibition of HIV1 capsid
[2] = target: T1, Structural capsid protein; test: Binding affinity to HIV1 capsid

T1 sequence (Q76129 whole entry): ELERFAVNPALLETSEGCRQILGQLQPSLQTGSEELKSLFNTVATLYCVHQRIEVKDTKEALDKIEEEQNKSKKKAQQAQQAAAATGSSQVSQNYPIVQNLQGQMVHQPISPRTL

With `Cc1ccc(NC(=O)NCCSCc2ccc(CN(C)C)o2)cc1Cl` the IC50 [1] was 60 µM and the Kd [2] was 800 µM.
